From PMC8597786 (Antimicrobial Agents and Chemotherapy, 2021) come the findings set out here.

Experiment in all cases: microbe, parasite or virus in culture
In test [1] the test system is SARS-CoV-2 (USA-WA1/2020 variant). The class given is cell-based.
The test system of test [2] is SARS-CoV-2 variant B.1.1.7. The class given is cell-based, SARS-CoV-2 B.1.1.7. The settings on record: Severe acute respiratory syndrome coronavirus 2, Vero C1008, 96 h; 4 days; read-out: EC50 for CPE scoring-based assay for B.1.1.7.
The test system of test [3] is SARS-CoV-2 variant B.1.351. In kind it is cell-based, SARS-CoV-2 B.1.351. The settings on record: for EC50: Severe acute respiratory syndrome coronavirus 2, Vero C1008, 96 h, 4 days, read-out: EC50 for CPE scoring-based assay for B.1.351.
In test [4] the test system is SARS-CoV-2 (USA-WA1/2020 variant). In kind it is cell-based. The settings on record: Severe acute respiratory syndrome coronavirus 2, Vero C1008, 96 h; 4 days; read-out: EC50: viability restoration in infected cells for WA1/2020.
For test [5], the system named is SARS-CoV-2 variant B.1.351. The class given is cell-based, SARS-CoV-2 B.1.351. The settings on record: Severe acute respiratory syndrome coronavirus 2, Vero C1008, 168 h, read-out: EC50: viability restoration in infected cells for B.1.351.
Test [6] has as its system SARS-CoV-2 (USA-WA1/2020 variant). The class given is cell-based. As to conditions: for EC50: Severe acute respiratory syndrome coronavirus 2, Vero C1008, 48 h, read-out: EC50: yield reduction assay for WA1/2020.
In test [7] the test system is SARS-CoV-2 variant B.1.1.7. As to conditions: for EC50: Severe acute respiratory syndrome coronavirus 2, Vero C1008, 168 h, read-out: EC50: viability restoration in infected cells for B.1.1.7.
The test system of test [8] is SARS-CoV-2 variant B.1.1.7. The class given is cell-based, SARS-CoV-2 B.1.1.7.
The subject of test [9] is SARS-CoV-2 variant B.1.351. In kind it is cell-based, SARS-CoV-2 B.1.351.
Where [10] appears, read: Severe acute respiratory syndrome coronavirus 2, Vero C1008, 96 h, 4 days, read-out: EC50 for CPE scoring-based assay for WA1/2020.
The mark [11] stands for this setting: Severe acute respiratory syndrome coronavirus 2, Vero C1008, read-out: EC50s, range over cytopathic effect and yield reduction assays.

Like-named read-outs stand apart in the source and are kept apart here.

By viability is commonly meant a per cent measure of how many cells are alive, often set against a control. Turning to `OC[C@H]1O[C@@H](Oc2cc3c4c(c2)[C@@H]([C@@H]2c5cc(O)cc6c5[C@@H](c5cc(O)cc(O)c5[C@H]2c2ccc(O)cc2)[C@H](c2ccc(O)cc2)O6)[C@H](c2ccc(O)cc2)c2c(O)cc(O)cc2[C@H]4[C@H](c2ccc(O)cc2)O3)[C@H](O)[C@@H](O)[C@@H]1O` [Vatalbinoside A, vatalbinoside A], the EC50 in test [1] (setting [10]) was 13.8 µM; in test [2], 4 µM; in test [3], 3.6 µM; in [4], 18.8 µM; in [5] it was 11.3 µM; in [6], 19.1 µM. The EC50 in test [7] was greater than 50 µM. Also, the “% infected, Average” value in test [6] (1 μM) was 17.1%; in [6] (3 μM), 17.8%; in test [6] (10 μM) it was 16.7%; in test [6] (30 μM), 9.9%; in test [6] (50 μM), 11.2%. The viability at 20 µM in test [7] (Severe acute respiratory syndrome coronavirus 2, read-out: Restored viability in B.1.1.7-infected cells) is no more than 51.2%.
As to `Oc1ccc(/C=C/c2cc(O)cc(O)c2)cc1` [Resveratrol, resveratrol, reference compound], the EC50 in [1] (setting [10]) was greater than 100 µM; in [4], greater than 50 µM.
`CCC(CC)COC(=O)[C@H](C)N[P@](=O)(OC[C@H]1O[C@@](C#N)(c2ccc3c(N)ncnn23)[C@H](O)[C@@H]1O)Oc1ccccc1` [Remdesivir, remdesivir, reference compound]: the EC50 is 2.5 µM in test [1] (setting [10]); 1 to 7.3 µM in test [1] (setting [11]); 1.5 µM in test [2]; 1.4 µM in test [3]; 7.3 µM in test [4]; greater than 10 µM in test [5]. For the same compound, the figures for the EC50 in [6] and in [7] were 1 µM and greater than 10 µM, respectively. For the same compound, the “% infected, Average” value in test [6] (0.3 μM) was 21.0%; in test [6] (1 μM) it was 13.5%; in test [6] (3 μM) it was 8.5%; in test [6] (10 μM), 0.0%.
On to `Oc1ccc([C@@H]2c3c(O)cc(O)cc3[C@@H]3c4c(cc(O)c5c4[C@@H]2[C@H](c2ccc(O)cc2)[C@H]5c2cc(O)cc4c2[C@@H](c2cc(O)cc(O)c2)[C@H](c2ccc(O)cc2)O4)O[C@H]3c2ccc(O)cc2)cc1` [Vaticanol B, vaticanol B], for which the EC50 was 37 µM in [1] (setting [10]); 32.4 µM in test [2]; 25.3 µM in [3]; greater than 50 µM in [4]; greater than 50 µM in test [5]; greater than 50 µM in test [6]. Also, the EC50 in [7] was greater than 50 µM. In addition, the “% infected, Average” value in test [6] (10 μM) is on record as 30.0%; in test [6] (30 μM) it was 26.8%; in [6] (50 μM) it was 16.9%.
Consider `Oc1ccc([C@@H]2c3c(O)cc(O)cc3[C@@H]3c4c(cc(O)cc4[C@H]2[C@@H]2c4cc(O)cc5c4[C@@H](c4cc(O)cc(O)c4[C@H]2c2ccc(O)cc2)[C@H](c2ccc(O)cc2)O5)O[C@H]3c2ccc(O)cc2)cc1` [Hopeaphenol, (–)-hopeaphenol], for which the EC50 is 10.2 µM in test [1] (setting [10]); 10.2 to 23.4 µM in test [1] (setting [11]); 2.3 to 23.4 µM in test [1] (Severe acute respiratory syndrome coronavirus 2, read-out: EC50s in infectious viral assays, range); 14.8 µM in [2]; 2.3 µM in test [3]; 23.4 µM in test [4]. Also, the EC50 was found to be 7.5 µM in [5]; 13.5 µM in test [6]; 11.4 µM in test [8] (Severe acute respiratory syndrome coronavirus 2, Vero C1008, 48 h, read-out: EC50: yield reduction assay for B.1.1.7); 8.8 µM in [9] (Severe acute respiratory syndrome coronavirus 2, Vero C1008, 48 h, read-out: EC50: yield reduction assay for B.1.351); 7.8 µM in test [7]. In test [3], the “Fold improved activity against B.1.351 over USA-WA1/2020 (CPE EC50)” value is recorded as 4.5 fold. Further, the “% infected, Average” value in [6] (1 μM) is on record as 29.2%; in [6] (3 μM), 23.0%; in test [6] (10 μM), 18.7%; in test [6] (30 μM), 11.5%; in [6] (50 μM), 3.6%; in [8] (3 μM) it was 12.1%. Moreover, the “% infected, Average” value is given as 10.4% in test [8] (10 μM); 6.7% in [8] (20 μM); 0.0% in test [8] (50 μM); 20.6% in test [9] (3 μM); 11.6% in [9] (10 μM); 9.9% in [9] (20 μM). The “% infected, Average” value in [9] (50 μM) stood at 0.1%.
As to `CC(C)C[C@H](NC(=O)OCc1ccccc1)C(=O)N[C@@H](CC1CCNC1=O)C(O)S(=O)(=O)O` (stereo partly drawn) [GC-376, reference compound], the EC50 in test [1] (4 days, read-out: EC50 for CPE scoring-based assay for WA1/2020) worked out at 3.9 µM.
